The results in this text go back to patent US11339130B1 (Blade Therapeutics, Inc., priority 2016, dated 2022).

Where two headings read alike, the source gives them in different places. A value given as a limit tells only on which side of the number the result lay.

The subject of assay [1] is Calpain activity in SH-SY5Y cells (SBDP-150). Put plainly: SH-SY5Y Spectrin western blot assay (SBDP-150 breakdown product, A23187-induced). To be noted: Homo sapiens, SH-SY5Y cells, read-out: SH-SY5Y Spectrin IC50. Type of assay: cell-based. On the technique in general: A western blot detects proteins with antibodies after separation by electrophoresis.
In assay [2] the test system is Calpain activity in SH-SY5Y cells. Put plainly: SH-SY5Y + AMC fluorescence assay (Suc-LLVY-AMC substrate). Type of assay: cell-based. The note with it: read-out: SH-SY5Y + AMC IC50.
A further assay deals with T1, Human Calpain 1/NS1 (Homo sapiens, UniProt P07384).
T1 sequence (P07384 1-714): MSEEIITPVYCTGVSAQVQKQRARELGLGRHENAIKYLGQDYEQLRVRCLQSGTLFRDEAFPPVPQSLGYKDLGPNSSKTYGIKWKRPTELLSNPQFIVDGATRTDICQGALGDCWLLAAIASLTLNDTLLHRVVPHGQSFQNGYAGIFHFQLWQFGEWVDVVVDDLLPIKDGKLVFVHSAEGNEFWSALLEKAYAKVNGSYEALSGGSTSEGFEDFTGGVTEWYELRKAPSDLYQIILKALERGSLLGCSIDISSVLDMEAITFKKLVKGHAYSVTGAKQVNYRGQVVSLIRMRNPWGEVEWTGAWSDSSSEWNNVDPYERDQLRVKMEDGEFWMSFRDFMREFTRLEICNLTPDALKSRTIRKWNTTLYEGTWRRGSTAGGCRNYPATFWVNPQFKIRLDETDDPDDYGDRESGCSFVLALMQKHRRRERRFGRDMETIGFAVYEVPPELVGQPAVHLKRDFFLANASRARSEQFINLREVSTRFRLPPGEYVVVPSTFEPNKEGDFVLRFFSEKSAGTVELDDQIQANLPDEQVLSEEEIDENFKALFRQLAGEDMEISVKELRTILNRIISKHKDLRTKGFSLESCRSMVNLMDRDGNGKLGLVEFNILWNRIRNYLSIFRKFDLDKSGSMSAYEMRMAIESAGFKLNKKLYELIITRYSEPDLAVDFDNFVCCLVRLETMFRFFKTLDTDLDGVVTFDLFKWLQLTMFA
T1 sequence (P04632 1-268 partner): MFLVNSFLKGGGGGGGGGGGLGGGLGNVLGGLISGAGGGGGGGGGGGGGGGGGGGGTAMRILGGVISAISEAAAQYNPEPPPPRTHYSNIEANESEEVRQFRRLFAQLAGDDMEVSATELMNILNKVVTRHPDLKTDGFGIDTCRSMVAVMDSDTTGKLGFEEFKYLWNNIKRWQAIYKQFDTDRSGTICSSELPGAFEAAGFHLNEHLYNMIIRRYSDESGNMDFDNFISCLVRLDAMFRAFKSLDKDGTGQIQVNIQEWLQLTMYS
The experiment in a line: Calpain inhibition continuous fluorescence (FRET) assay, Human Calpain 1/NS1. Type of assay: biochemical. To be noted: read-out: Human Calpain 1/NS1 IC50. Put shortly:
(§1)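 Calpain activity is measured kinetically with a quenched FRET peptide in 50 mM Tris pH 7.5, 100 mM NaCl, 1 mM DTT, with CaCl2 triggering activation. Rates over 1-5 min are plotted against log inhibitor to obtain IC50 by 4-parameter logistic fitting.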

The target in a further assay is T2, Human Calpain 9/NS1 (Homo sapiens, UniProt O14815).
T2 sequence (O14815 1-690): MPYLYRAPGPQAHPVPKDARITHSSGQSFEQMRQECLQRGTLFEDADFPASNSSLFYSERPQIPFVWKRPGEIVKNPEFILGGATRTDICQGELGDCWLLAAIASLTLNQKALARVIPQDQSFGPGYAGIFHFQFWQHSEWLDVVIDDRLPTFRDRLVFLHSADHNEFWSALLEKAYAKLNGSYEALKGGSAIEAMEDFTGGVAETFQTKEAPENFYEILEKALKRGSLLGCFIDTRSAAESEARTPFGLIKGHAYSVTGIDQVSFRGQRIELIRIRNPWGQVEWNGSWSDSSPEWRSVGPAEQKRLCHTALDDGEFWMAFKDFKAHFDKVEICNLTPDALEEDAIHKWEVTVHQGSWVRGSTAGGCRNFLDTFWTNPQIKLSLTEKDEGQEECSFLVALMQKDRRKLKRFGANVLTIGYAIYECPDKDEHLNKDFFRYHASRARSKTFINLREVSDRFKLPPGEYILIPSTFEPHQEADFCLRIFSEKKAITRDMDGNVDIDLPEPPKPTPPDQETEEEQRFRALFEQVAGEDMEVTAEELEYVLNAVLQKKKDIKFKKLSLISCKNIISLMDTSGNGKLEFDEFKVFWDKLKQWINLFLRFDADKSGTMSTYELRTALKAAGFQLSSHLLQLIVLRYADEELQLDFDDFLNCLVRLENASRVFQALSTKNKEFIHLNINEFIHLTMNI
T2 sequence (P04632 1-268 partner): T1 sequence (P04632 1-268 partner)
Put plainly: Calpain inhibition continuous fluorescence (FRET) assay, Human Calpain 9/NS1. To be noted: read-out: Human Calpain 9/NS1 IC50. Type of assay: biochemical. The essentials:
as §1

Another assay addresses T3, Human Calpain 2/NS1 (Homo sapiens, UniProt P17655).
T3 sequence (P17655 1-700): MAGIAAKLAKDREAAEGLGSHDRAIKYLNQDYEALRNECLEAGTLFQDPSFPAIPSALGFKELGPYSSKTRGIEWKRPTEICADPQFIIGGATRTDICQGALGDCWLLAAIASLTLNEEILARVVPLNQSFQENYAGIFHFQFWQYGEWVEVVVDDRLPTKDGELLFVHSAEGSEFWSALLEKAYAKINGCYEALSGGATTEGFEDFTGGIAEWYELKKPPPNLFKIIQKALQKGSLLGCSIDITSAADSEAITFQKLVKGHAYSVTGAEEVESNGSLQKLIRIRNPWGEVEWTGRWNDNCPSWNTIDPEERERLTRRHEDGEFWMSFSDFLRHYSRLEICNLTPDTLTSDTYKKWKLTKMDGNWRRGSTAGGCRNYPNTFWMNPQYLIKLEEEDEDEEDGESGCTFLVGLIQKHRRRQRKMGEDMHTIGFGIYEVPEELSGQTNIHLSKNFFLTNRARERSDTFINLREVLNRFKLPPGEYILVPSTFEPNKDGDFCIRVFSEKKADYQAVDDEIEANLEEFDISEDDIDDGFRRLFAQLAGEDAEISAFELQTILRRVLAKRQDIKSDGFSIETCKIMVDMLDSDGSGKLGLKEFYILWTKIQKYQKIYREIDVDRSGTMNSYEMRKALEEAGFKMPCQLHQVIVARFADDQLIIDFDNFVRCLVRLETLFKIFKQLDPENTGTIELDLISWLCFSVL
T3 sequence (P04632 1-268 partner): T1 sequence (P04632 1-268 partner)
Put plainly: Calpain inhibition continuous fluorescence (FRET) assay, Human Calpain 2/NS1. Type of assay: biochemical. To be noted: read-out: Human Calpain 2/NS1 IC50. Put shortly:
as §1

[3] abbreviates: Column D, A23187-induced SBDP-150.
Where [4] appears, read: A23187-induced SBDP-150, western blot.

Take `CCc1nc(-c2ccccc2)c(C(=O)N[C@@H](Cc2ccccc2)C(=O)C(N)=O)o1` [Compound 226, (S)—N-(4-amino-3,4-dioxo-1-phenylbutan-2-yl)-2-ethyl-4-phenyloxazole-5-carboxamide]: the IC50 in assay [1] (setting [3]) is less than 10 µM; in assay [2] (Column E) it was less than 10 µM; at Human Calpain 1/NS1 (Column A), less than 3 µM; at Human Calpain 9/NS1 (Column C), less than 3 µM; at Human Calpain 2/NS1 (Column B), less than 3 µM.

Turning to `Cc1cc(C(=O)NC(Cc2ccccc2)C(=O)C(N)=O)c(-n2cc3ccccc3n2)s1` (stereo not drawn) [Compound 428, N-(4-amino-3,4-dioxo-1-phenylbutan-2-yl)-2-(2H-indazol-2-yl)-5-methylthiophene-3-carboxamide], the IC50 in assay [1] (setting [4]) was less than 10 µM; in assay [2], more than 25 µM; on Human Calpain 1/NS1, less than 3 µM; on Human Calpain 9/NS1, less than 3 µM; at Human Calpain 2/NS1, less than 3 µM.

As for `Cc1c(F)cccc1-c1oncc1C(=O)NC(Cc1ccccc1)C(=O)C(N)=O` (stereo not drawn) [Compound 594, N-(4-amino-3,4-dioxo-1-phenylbutan-2-yl)-5-(3-fluoro-2-methylphenyl)isoxazole-4-carboxamide], the IC50 in assay [1] (setting [4]) was 10 to 25 µM; in assay [2], less than 10 µM; at Human Calpain 1/NS1 it was less than 3 µM; at Human Calpain 9/NS1, less than 3 µM; on Human Calpain 2/NS1 it was less than 3 µM.

Turning to `Cn1cc(C(=O)NC(Cc2ccccc2)C(=O)C(N)=O)c(-c2cccc(C(F)F)c2)n1` (stereo not drawn) [Compound 508, N-(4-amino-3,4-dioxo-1-phenylbutan-2-yl)-3-(3-(difluoromethyl)phenyl)-1-methyl-1H-pyrazole-4-carboxamide], the IC50 in assay [1] (setting [4]) is less than 10 µM; in assay [2], less than 10 µM; on Human Calpain 1/NS1, less than 3 µM; on Human Calpain 9/NS1, less than 3 µM; at Human Calpain 2/NS1, less than 3 µM.

With `CC(=O)NCc1cccc(-n2nc(C)cc2C(=O)N[C@@H](Cc2ccccc2)C(=O)C(N)=O)c1` [Compound 143, (S)-1-(3-(acetamidomethyl)phenyl)-N-(4-amino-3,4-dioxo-1-phenylbutan-2-yl)-3-methyl-1H-pyrazole-5-carboxamide], the IC50 in assay [1] (setting [3]) was 10 to 25 µM; in assay [2] (Column E) it was less than 10 µM; at Human Calpain 1/NS1 (Column A), less than 3 µM; on Human Calpain 9/NS1 (Column C) it was less than 3 µM; at Human Calpain 2/NS1 (Column B), less than 3 µM.

For the molecule `Cn1cc(C(=O)NC(Cc2ccccc2)C(=O)C(N)=O)c(-c2ccc3ncccc3c2)n1` (stereo not drawn) [Compound 593, N-(4-amino-3,4-dioxo-1-phenylbutan-2-yl)-1-methyl-3-(quinolin-6-yl)-1H-pyrazole-4-carboxamide], the IC50 is more than 25 µM in assay [1] (setting [4]); more than 25 µM in assay [2]; less than 3 µM at Human Calpain 1/NS1; less than 3 µM at Human Calpain 9/NS1; less than 3 µM at Human Calpain 2/NS1.

For the molecule `Cn1cc(C(=O)NC(Cc2ccccc2)C(=O)C(N)=O)c(-c2ccc(F)cc2)n1` (stereo not drawn) [Compound 447, N-(4-amino-3,4-dioxo-1-phenylbutan-2-yl)-3-(4-fluorophenyl)-1-methyl-1H-pyrazole-4-carboxamide], the IC50 in assay [1] (setting [4]) was 10 to 25 µM; in assay [2], 10 to 25 µM; at Human Calpain 1/NS1 it was less than 3 µM; at Human Calpain 9/NS1, less than 3 µM; at Human Calpain 2/NS1, less than 3 µM.

`Cc1cc(C(=O)N[C@@H](Cc2ccccc2)C(=O)C(N)=O)n(-c2ccc(-c3ccccc3F)cc2)n1` [Compound 217, (S)—N-(4-amino-3,4-dioxo-1-phenylbutan-2-yl)-1-(2′-fluoro-[1,1′-biphenyl]-4-yl)-3-methyl-1 h-pyrazole-5-carboxamide]: the IC50 in assay [1] (setting [3]) was less than 10 µM; in assay [2] (Column E) it was more than 25 µM; at Human Calpain 1/NS1 (Column A) it was less than 3 µM; on Human Calpain 9/NS1 (Column C), less than 3 µM; on Human Calpain 2/NS1 (Column B), less than 3 µM.

On to `NC(=O)C(=O)C(Cc1ccccc1)NC(=O)c1cc(C(F)(F)C(F)(F)F)nn1-c1ccccc1` (stereo not drawn) [Compound 342, N-(4-amino-3,4-dioxo-1-phenylbutan-2-yl)-3-(perfluoroethyl)-1-phenyl-1H-pyrazole-5-carboxamide], for which the IC50 in assay [1] (setting [4]) is 10 to 25 µM; in assay [2], 10 to 25 µM; on Human Calpain 1/NS1 it was less than 3 µM; at Human Calpain 9/NS1, less than 3 µM; at Human Calpain 2/NS1, less than 3 µM.

As to `Cc1cccc(-c2c(C(=O)N[C@@H](Cc3ccccc3)C(=O)C(N)=O)cnn2C)c1` [Compound 172, (S)—N-(4-amino-3,4-dioxo-1-phenylbutan-2-yl)-1-methyl-5-(m-tolyl)-1H-pyrazole-4-carboxamide], the IC50 in assay [1] (setting [3]) is less than 10 µM; in assay [2] (Column E), more than 25 µM; at Human Calpain 1/NS1 (Column A), less than 3 µM; at Human Calpain 9/NS1 (Column C) it was less than 3 µM; on Human Calpain 2/NS1 (Column B), less than 3 µM.

As for `Cn1ncc(C(=O)N[C@@H](Cc2ccccc2)C(=O)C(N)=O)c1-c1ccccn1` [Compound 164, (S)—N-(4-amino-3,4-dioxo-1-phenylbutan-2-yl)-1-methyl-5-(pyridin-2-yl)-1H-pyrazole-4-carboxamide], the IC50 is more than 25 µM in assay [1] (setting [3]); more than 25 µM in assay [2] (Column E); less than 3 µM at Human Calpain 1/NS1 (Column A); less than 3 µM at Human Calpain 9/NS1 (Column C); less than 3 µM at Human Calpain 2/NS1 (Column B).

On to `NC(=O)C(=O)C(Cc1ccccc1)NC(=O)c1nsnc1-c1cccc(F)c1` (stereo not drawn) [Compound 321, N-(4-amino-3,4-dioxo-1-phenylbutan-2-yl)-4-(3-fluorophenyl)-1,2,5-thiadiazole-3-carboxamide], for which the IC50 was less than 10 µM in assay [1] (setting [4]); more than 25 µM in assay [2]; less than 3 µM on Human Calpain 1/NS1; less than 3 µM on Human Calpain 9/NS1; less than 3 µM on Human Calpain 2/NS1.
